We go through five molecules from article PMC6272869, “Simultaneous Determination of Multiple Components in Guanjiekang in Rat Plasma via the UPLC–MS/MS Method and Its Application in Pharmacokinetic Study” (Molecules, 2016).

Like-named read-outs stand apart in the source and are kept apart here. Bounds are passed on as bounds.

Data set [1] in a line: Pharmacokinetic study in rats after single oral administration of GJK (UPLC-MS/MS of plasma). The data set is classed as in vivo, Sprague–Dawley rats. Conditions: single oral GJK 24 g/kg; for AUC(0-inf) / half-life / Cmax / MRT last / AUC(0-t) / Tmax: Sprague-Dawley; for AUC(0-inf) / half-life / Cmax / MRT last / AUC(0-t) / Tmax (time to reach peak concentration): rat plasma; for AUC(0-inf): n = 6, AUC0–t extrapolated to infinity; for AUC(0-inf) / AUC(0-t): mean ± S.D.; for half-life / Cmax / MRT last: n = 6, mean ± S.D.; for half-life: non-compartmental, read-out: T1/2z (terminal elimination half-life); for Cmax: read-out: Cmax (maximum plasma concentration); for MRT last: read-out: MRT0–t (mean residence time) (converted); for AUC(0-t): n = 6, zero to last sampling time; for Tmax: rat, po, 24 g/kg, read-out: Tmax (time to reach peak concentration) (converted); for Tmax / Tmax (time to reach peak concentration): n = 6, median (minimum, maximum). As to the method:
Chromatographic analyses were performed using an Agilent 1290 series UPLC system (Agilent Technologies, Santa Clara, CA, USA) equipped with a binary pump, an online degasser, an auto plate sampler, and a thermostatically controlled column compartment. The determination was carried out at 30 °C on a Waters Acquity UPLC C18 column (100 mm × 2.1 mm, […], Waters, Milford, MA, USA). The mobile phase consisted of 0.1% formic acid (A) and acetonitrile (B) using a gradient elution of 10%–34% B at 0–6 min, 34%–80% B at 6–10 min, 80% B at 10–12 min, 10% B at 12–15 min, and the re-equilibration time of gradient elution was 1 min. The sample injection volume was 5 µL, and the flow rate was 0.35 mL/min. The MS detection was performed using an Agilent 6460 Triple Quadrupole MS (Agilent Technologies) equipped with an electrospray ionization (ESI) source. […] Other parameters were as follows: drying gas (N2) flow rate, 11.0 L/min.
Plasma samples (50 µL) were thawed on ice and mixed with 200 µL of IS (20.0 ng/mL) via vortexing for 1 min. Then, the mixture was centrifuged at 13,500 rpm for 15 min to separate the precipitated protein at 4 °C. The supernatant was transferred into a clean Eppendorf tube and evaporated to dryness under a stream of nitrogen. The residues were reconstituted with 50 µL of water–methanol (50:50, v/v), vortexed and centrifuged at 13,500 rpm for 15 min. Then, the supernatants were injected into the UPLC–MS/MS for analysis.
Sprague–Dawley rats (200–250 g) were obtained from the Center of the Chinese University of Hong Kong and were kept in an environmentally controlled room (temperature: 25 ± 2 °C, humidity: 50% ± 5%, 12 h dark-light cycle) for at least 7 days before the experiments. Prior to the experiments, the animals were fasted for 24 h with water ad libitum. All protocols of animal experiments were approved in accordance with the regulations of the Experimental Animal Administration issued by the Macau University of Science and Technology.
The blood samples (100 µL) were individually collected from the caudal vein into heparinized tubes before administration, and 5, 10, 15, 30, 45, 60, 90, 120, 240, 360, 480, 720 and 1440 min after administration, and then immediately centrifuged at 4500 rpm for 15 min. […] The main PK parameters, including the maximum plasma concentration (Cmax), time to reach Cmax (Tmax), half-life time (T1/2), area under the curve (AUC 0–t and AUC 0–∞) and mean residence time (MRT), were calculated via the non-compartment model using the pharmacokinetic software, PK Solutions 2.0 (Summit Co., Montrose, CO, USA).

A short description of data set [2]: Stability of the analytes in rat plasma under different storage conditions (QC samples). The class given is in vitro ADME. As to conditions: n = 3; for Remaining (%) / remaining at 4 h / remaining at 360 h: rat plasma; for Remaining (%): freeze–thaw cycles (three); for remaining at 24 h / remaining at 4 h / remaining at 360 h: rat; for remaining at 24 h: extracted plasma QC samples in auto-sampler, 4 °C for 24 h; for remaining at 4 h: 25 °C for 4 h; for remaining at 360 h: at −70 °C for 15 days. The procedure:
The stability of the seven compounds in rat plasma was assessed by analyzing the QC samples at three concentrations under different sample storage conditions and processing procedures. Short-term stability was assessed by analyzing the QC samples that were kept at room temperature for 4 h, which exceeded the routine sample preparation time. […] Freeze-thaw stability was investigated after three freeze (−40 °C) and thaw (room temperature) cycles. Post-preparation stability was assessed by analyzing the extracted QC samples that were kept in the auto-sampler at 4 °C for […]. All stability testing QC samples were evaluated using the calibration curve of the freshly prepared samples.

Data set [3] concerns phosphorylation of ERK, JNK, IKK stimulated by TNF-α. Also on record: method as in PMID 23978582. Conditions: cited from earlier work.
In data set [4] the test system is ages-induced mesangial cell damage. Set-up: method as in PMID 23881455. As to conditions: in vitro; read-out: IC50 of antioxidative and anti-inflammatory activities; cited from earlier work.
Setting [5] is: plasma, medium QC concentration.

What is called AUC(0-inf) is total exposure, with the tail of the curve extrapolated. What is called AUC(0-t) is exposure summed from dosing to a finite time, without extrapolation to infinity. A low value points to less exposure. On to `COCC12CCC(OC)C34C5CC6(O)C(OC)C(O)C(O)(C5C6OC(=O)c5ccccc5)C(C(OC)C13)C4N(C)C2` (stereo not drawn) [Benzoylhypaconine, benzoylhypaconine], for which, in data set [1] (in vivo), the AUC(0-inf) was 76.7 ng·h/mL, the half-life turned out to be 382 ± 65 min, the Cmax amounted to 35.6 ± 10.2 ng/mL and the MRT last was 6.25 h. In data set [1] (in vivo), the area under the curve AUC(0-t) was 72.1 ng·h/mL and the Tmax was less than 46 min. Moreover, the “Tmax (time to reach peak concentration)” value in data set [1] is reported as 30 (30, 45) min. In addition, the “Remaining (%)” value in data set [2] (high QC concentration) is given as 106.9%. Further, in data set [2] (low QC concentration), the “Remaining (%)” value was found to be 109.6%. Further, the “Remaining (%)” value in data set [2] (medium QC concentration) was determined as 92.7%. Moreover, in data set [2] (plasma, high QC concentration), the amount remaining at 24 h amounted to 104%, the fraction remaining at 4 h is 105% and the fraction remaining at 360 h is 105%. Besides, in data set [2] (plasma, low QC concentration), the fraction remaining at 24 h came to 107%, the share remaining at 4 h turned out to be 108% and the share remaining at 360 h came out at 108%. Besides, in data set [2] (setting [5]), the fraction remaining at 24 h was determined as 104%, the amount remaining at 4 h is 108% and the fraction remaining at 360 h came out at 104%.

As to `COc1ccc(-c2coc3cc(O[C@@H]4O[C@H](CO)[C@@H](O)[C@H](O)[C@H]4O)ccc3c2=O)cc1O` [Calycosin-7-glucoside, calycosin-7-glucoside], in data set [1] (plasma), the Tmax was less than 46 min. In addition, in data set [1], the AUC(0-inf) is 79.3 ng·h/mL, the half-life stood at 266 ± 44 min, the Cmax came out at 52.2 ± 14.8 ng/mL and the MRT last is 2.17 h. In addition, in data set [1], the area under the curve AUC(0-t) is 77.4 ng·h/mL and the “Tmax (time to reach peak concentration)” value is on record as 45 (45, 60) min. Also, in data set [2] (high QC concentration), the “Remaining (%)” value stood at 107.4% and the fraction remaining at 24 h was determined as 103%. In addition, in data set [2] (low QC concentration), the “Remaining (%)” value amounted to 108.1% and the fraction remaining at 24 h worked out at 104%. For the same molecule, in data set [2] (medium QC concentration), the “Remaining (%)” value turned out to be 107.3% and the fraction remaining at 24 h is 104%. Moreover, in data set [2] (plasma, high QC concentration), the amount remaining at 4 h was determined as 103% and the amount remaining at 360 h worked out at 102%. For the same molecule, in data set [2] (plasma, low QC concentration), the share remaining at 4 h came out at 106% and the fraction remaining at 360 h came to 108%. For the same molecule, in data set [2] (setting [5]), the share remaining at 4 h is 96% and the share remaining at 360 h is 94.3%.

Take `COc1ccc(-c2coc3cc(O)ccc3c2=O)cc1` [Formononetin, formononetin]: the AUC(0-t) in data set [1] (in vivo) was 15.2 ng·h/mL. Besides, the Tmax in data set [1] (plasma) is less than 46 min. In data set [1], the area under the curve AUC(0-inf) was 18.7 ng·h/mL, the half-life was 951 ± 97 min, the Cmax turned out to be 6.79 ± 2.18 ng/mL and the MRT last was 12.9 h. In data set [1], the “Tmax (time to reach peak concentration)” value was 45 (30, 45) min.

As usually defined, the IC50 is the concentration at which inhibition is half-maximal. For `C[C@@]12C[C@@]3(O)O[C@@H](O1)[C@]1(COC(=O)c4ccccc4)[C@H]3C[C@@]12O[C@@H]1O[C@H](CO)[C@@H](O)[C@H](O)[C@H]1O` [Paeoniflorin, paeoniflorin], in data set [1] (in vivo), the AUC(0-inf) is 1230 ng·h/mL, the half-life came out at 210 ± 38 min, the Cmax turned out to be 905 ± 226 ng/mL and the MRT last was 3.32 h. In data set [1] (in vivo), the area under the curve AUC(0-t) is 1220 ng·h/mL and the Tmax is less than 46 min. For the same molecule, in data set [2] (high QC concentration), the “Remaining (%)” value is reported as 105.0%. Further, the “Remaining (%)” value in data set [2] (low QC concentration) is reported as 107.8%. The “Remaining (%)” value in data set [2] (medium QC concentration) stood at 106.4%. In data set [2] (plasma, high QC concentration), the share remaining at 24 h came to 103%, the share remaining at 4 h turned out to be 96.4% and the amount remaining at 360 h came to 104%. In data set [2] (plasma, low QC concentration), the amount remaining at 24 h came to 98.3%, the share remaining at 4 h was 102% and the fraction remaining at 360 h is 98.6%. For the same molecule, in data set [2] (setting [5]), the amount remaining at 24 h was determined as 105%, the share remaining at 4 h worked out at 102% and the amount remaining at 360 h turned out to be 104%. Besides, in data set [3], the “Concentration that inhibits phosphorylation of ERK, JNK, IKK” value is reported as 25 ng/mL. Besides, in data set [4], the IC50 was 420 µM.

With `COc1cc2c(cc1OC)[C@@H]1Cc3ccc(OC)c(OC)c3CN1CC2` [Tetrahydropalmatine, tetrahydropalmatine], in data set [1] (in vivo), the AUC(0-inf) is 184 ng·h/mL, the half-life worked out at 310 ± 54 min, the Cmax amounted to 42 ± 13.4 ng/mL and the MRT last was 8.2 h. In data set [1] (in vivo), the AUC(0-t) is 170 ng·h/mL and the Tmax was 189 min. In data set [1], the “Tmax (time to reach peak concentration)” value is listed as 180 (180, 180) min. The “Remaining (%)” value in data set [2] (high QC concentration) came to 108.1%. Also, the “Remaining (%)” value in data set [2] (low QC concentration) came out at 89.9%. Besides, the “Remaining (%)” value in data set [2] (medium QC concentration) stood at 107.4%. Besides, in data set [2] (plasma, high QC concentration), the amount remaining at 24 h amounted to 101%, the fraction remaining at 4 h turned out to be 102% and the amount remaining at 360 h turned out to be 103%. Besides, in data set [2] (plasma, low QC concentration), the amount remaining at 24 h was 105%, the share remaining at 4 h was found to be 103% and the amount remaining at 360 h was found to be 104%. In addition, in data set [2] (setting [5]), the share remaining at 24 h came to 98.4%, the share remaining at 4 h was determined as 101% and the fraction remaining at 360 h worked out at 103%.
